The values below come from ChEMBL document CHEMBL3862033 (J Med Chem, 2016).

The structures appear in SMILES notation.

Test [1] has as its target T1, 5-hydroxytryptamine receptor 2A (Homo sapiens, UniProt P28223). The test is described as follows: Displacement of [3H]ketanserin from human 5-HT2A receptor expressed in HEK-T cell membranes incubated for 90 mins under dark condition by microbeta scintillation counting method. Background: In a radioligand displacement assay an active substance lowers the binding of a labelled ligand.

The target of test [2] is T1, 5-hydroxytryptamine receptor 2A. The test can be described thus: Displacement of [3H]ketanserin from human 5-HT2A receptor expressed in HEK-T cell membranes at 10 uM incubated for 90 mins under dark condition by microbeta scintillation counting method relative to control.
The target of test [3] is T2, 5-hydroxytryptamine receptor 2B (Homo sapiens, UniProt P41595). The test can be described thus: biochemical. It counts as cell-based, HEK293.
Test [4] has as its target T3, 5-hydroxytryptamine receptor 2C (Homo sapiens, UniProt P28335).
T3 sequence (P28335 whole entry): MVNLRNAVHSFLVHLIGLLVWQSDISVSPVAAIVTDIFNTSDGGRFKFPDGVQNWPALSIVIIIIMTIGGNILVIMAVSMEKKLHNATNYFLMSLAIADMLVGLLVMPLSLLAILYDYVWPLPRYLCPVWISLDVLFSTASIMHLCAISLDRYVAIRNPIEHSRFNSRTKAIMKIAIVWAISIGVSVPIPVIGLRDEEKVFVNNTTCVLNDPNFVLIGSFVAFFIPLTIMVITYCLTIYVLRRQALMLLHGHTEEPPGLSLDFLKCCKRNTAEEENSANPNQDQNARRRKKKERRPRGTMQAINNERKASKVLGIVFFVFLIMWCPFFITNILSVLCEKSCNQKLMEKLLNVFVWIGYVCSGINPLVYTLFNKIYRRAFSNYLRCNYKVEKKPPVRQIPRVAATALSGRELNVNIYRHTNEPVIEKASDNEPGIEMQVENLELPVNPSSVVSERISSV
The test can be described thus: Displacement of [3H]mesulergine from human 5-HT2CR expressed in Flp-In HEK cell membranes incubated for 90 mins under dark condition by microbeta scintillation counting method. Details: species or system HEK293.

For test [5], the target named is T4, 5-hydroxytryptamine receptor 2C (Homo sapiens) (UniProt P28335).
T4 sequence (whole entry): T3 sequence (P28335 whole entry)
The test is described as follows: Displacement of [3H]mesulergine from human 5-HT2CR expressed in Flp-In HEK cell membranes at 10 uM incubated for 90 mins under dark condition by microbeta scintillation counting method relative to control. The settings on record: HEK293.

Test [6] has as its target T5, 5-hydroxytryptamine receptor 1A (Homo sapiens) (UniProt P08908).
T5 sequence (whole entry): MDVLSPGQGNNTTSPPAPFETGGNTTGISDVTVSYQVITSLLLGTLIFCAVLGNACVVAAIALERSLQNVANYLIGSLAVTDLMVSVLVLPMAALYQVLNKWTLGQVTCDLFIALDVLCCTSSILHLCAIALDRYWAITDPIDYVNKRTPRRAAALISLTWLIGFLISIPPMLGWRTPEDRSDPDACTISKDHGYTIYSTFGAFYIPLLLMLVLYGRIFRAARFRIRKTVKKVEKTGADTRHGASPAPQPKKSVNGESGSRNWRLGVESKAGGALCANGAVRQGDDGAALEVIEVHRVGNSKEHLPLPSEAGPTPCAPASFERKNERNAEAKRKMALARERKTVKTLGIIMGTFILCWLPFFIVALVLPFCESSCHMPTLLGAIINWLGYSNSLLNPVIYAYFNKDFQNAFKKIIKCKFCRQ
The test is described as follows: Displacement of [3H]WAY100635 from human 5-HT1AR expressed in CHO cell membranes at 10 uM incubated for 90 mins under dark condition by microbeta scintillation counting method relative to control.

Test [7] has as its target T6, 5-hydroxytryptamine receptor 3A (Homo sapiens) (UniProt P46098).
T6 sequence (whole entry): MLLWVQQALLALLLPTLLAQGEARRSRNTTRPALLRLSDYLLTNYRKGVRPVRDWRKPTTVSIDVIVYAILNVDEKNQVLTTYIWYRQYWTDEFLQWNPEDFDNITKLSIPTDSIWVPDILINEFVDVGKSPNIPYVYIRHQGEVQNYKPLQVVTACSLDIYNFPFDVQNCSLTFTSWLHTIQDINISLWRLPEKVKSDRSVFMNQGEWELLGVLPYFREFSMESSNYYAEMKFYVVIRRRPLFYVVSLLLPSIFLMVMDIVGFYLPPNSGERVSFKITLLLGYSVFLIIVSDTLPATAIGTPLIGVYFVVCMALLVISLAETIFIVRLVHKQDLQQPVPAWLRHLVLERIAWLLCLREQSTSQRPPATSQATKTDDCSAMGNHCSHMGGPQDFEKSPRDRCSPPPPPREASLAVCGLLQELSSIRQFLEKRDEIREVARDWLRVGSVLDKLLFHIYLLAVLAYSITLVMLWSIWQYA
The test is described as follows: Displacement of [3H]GR65630 from human 5-HT3 receptor expressed in HEK-T cell membranes at 10 uM incubated for 90 mins under dark condition by microbeta scintillation counting method relative to control.

In test [8] the target is 5-hydroxytryptamine receptor 1E (Homo sapiens) (UniProt P28566). The test can be described thus: Displacement of [3H]5-HT from human 5-HT1E receptor expressed in HEK cell membranes at 10 uM incubated for 90 mins under dark condition by microbeta scintillation counting method relative to control. The settings on record: HEK293.
In test [9] the target is 5-hydroxytryptamine receptor 5A (Homo sapiens) (UniProt P47898). The test can be described thus: Displacement of [3H]LSD from human 5-HT5A receptor expressed in Flp-In-CHO cell membranes incubated for 90 mins under dark condition by microbeta scintillation counting method relative to control. Details: concentration or dose not given beside the values.
Test [10] addresses 5-hydroxytryptamine receptor 1B (Homo sapiens) (UniProt P28222). The test is described as follows: Displacement of [3H]5-CT from human 5-HT1BR expressed in HEK cell membranes at 10 uM incubated for 90 mins under dark condition by microbeta scintillation counting method relative to control. The settings on record: HEK293.
The target of test [11] is 5-hydroxytryptamine receptor 4 (Homo sapiens) (UniProt Q13639). The test can be described thus: Displacement of [3H]GR113808 from human 5-HT4 receptor at 10 uM incubated for 90 mins under dark condition by microbeta scintillation counting method relative to control.
The target in test [12] is 5-hydroxytryptamine receptor 1D (Homo sapiens) (UniProt P28221). The test can be described thus: Displacement of [3H]5-CT from human 5-HT1D receptor expressed in HEK-T cell membranes at 10 uM incubated for 90 mins under dark condition by microbeta scintillation counting method relative to control.
Another test deals with T7, Adenosine receptor A3 (Homo sapiens, UniProt P0DMS8).
T7 sequence (P0DMS8 whole entry): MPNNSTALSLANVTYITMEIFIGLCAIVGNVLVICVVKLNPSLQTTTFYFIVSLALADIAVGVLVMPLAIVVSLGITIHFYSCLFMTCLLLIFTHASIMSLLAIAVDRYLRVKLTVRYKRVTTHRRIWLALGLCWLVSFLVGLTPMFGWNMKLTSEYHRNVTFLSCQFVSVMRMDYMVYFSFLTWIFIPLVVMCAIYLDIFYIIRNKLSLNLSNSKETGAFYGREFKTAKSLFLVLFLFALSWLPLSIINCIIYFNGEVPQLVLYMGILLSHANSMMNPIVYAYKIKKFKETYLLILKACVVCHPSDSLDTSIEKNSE
The test is described as follows: Displacement of [125l]N 6-(4-amino-3-iodobenzyl)adenosine-5'-N-methyluronamide from recombinant human A3AR expressed in CHO cell membranes after 60 mins by gamma counting method.

The target in test [13] is 5-hydroxytryptamine receptor 6 (Homo sapiens) (UniProt P50406). The test can be described thus: Displacement of [3H]LSD from human 5-HT6 receptor expressed in HEK cell membranes at 10 uM incubated for 90 mins under dark condition by microbeta scintillation counting method relative to control. The settings on record: HEK293.
Another test has as its target T8, Adenosine receptor A1 (Homo sapiens, UniProt P30542).
T8 sequence (P30542 whole entry): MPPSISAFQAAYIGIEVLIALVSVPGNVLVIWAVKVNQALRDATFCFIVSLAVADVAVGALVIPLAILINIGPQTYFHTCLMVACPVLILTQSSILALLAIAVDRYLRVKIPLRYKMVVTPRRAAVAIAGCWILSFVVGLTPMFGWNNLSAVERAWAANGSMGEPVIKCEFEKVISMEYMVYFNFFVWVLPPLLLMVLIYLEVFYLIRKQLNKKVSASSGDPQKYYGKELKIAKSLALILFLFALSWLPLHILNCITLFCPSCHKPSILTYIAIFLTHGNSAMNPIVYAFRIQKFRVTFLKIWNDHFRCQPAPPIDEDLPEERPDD
The test is described as follows: Displacement of [3H]N6-phenylisopropyladenosine from recombinant human A1AR expressed in CHO cell membranes after 60 mins by liquid scintillation counting method.

In test [14] the target is 5-hydroxytryptamine receptor 7 (Homo sapiens) (UniProt P34969). The test is described as follows: Displacement of [3H]LSD from human 5-HT7A receptor expressed in HEK cell membranes at 10 uM incubated for 90 mins under dark condition by microbeta scintillation counting method relative to control. The settings on record: HEK293.
Test [15] deals with T2, 5-hydroxytryptamine receptor 2B. The settings on record: HEK293, at 10 µM.

T1 sequence (P28223 whole entry): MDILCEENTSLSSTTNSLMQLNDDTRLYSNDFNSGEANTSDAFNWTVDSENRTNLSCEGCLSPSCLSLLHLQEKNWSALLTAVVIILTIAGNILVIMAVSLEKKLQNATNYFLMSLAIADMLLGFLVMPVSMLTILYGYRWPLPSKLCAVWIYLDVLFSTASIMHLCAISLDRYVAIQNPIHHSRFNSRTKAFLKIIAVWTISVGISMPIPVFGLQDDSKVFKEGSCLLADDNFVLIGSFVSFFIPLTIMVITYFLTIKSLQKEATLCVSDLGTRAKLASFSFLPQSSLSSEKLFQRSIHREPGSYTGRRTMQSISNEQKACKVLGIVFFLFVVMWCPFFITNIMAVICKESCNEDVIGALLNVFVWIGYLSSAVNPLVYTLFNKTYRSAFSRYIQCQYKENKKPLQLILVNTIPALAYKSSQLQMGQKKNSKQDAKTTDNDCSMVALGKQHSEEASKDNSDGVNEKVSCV
Chain of 5-hydroxytryptamine receptor 4 (Homo sapiens) (Q13639 whole entry): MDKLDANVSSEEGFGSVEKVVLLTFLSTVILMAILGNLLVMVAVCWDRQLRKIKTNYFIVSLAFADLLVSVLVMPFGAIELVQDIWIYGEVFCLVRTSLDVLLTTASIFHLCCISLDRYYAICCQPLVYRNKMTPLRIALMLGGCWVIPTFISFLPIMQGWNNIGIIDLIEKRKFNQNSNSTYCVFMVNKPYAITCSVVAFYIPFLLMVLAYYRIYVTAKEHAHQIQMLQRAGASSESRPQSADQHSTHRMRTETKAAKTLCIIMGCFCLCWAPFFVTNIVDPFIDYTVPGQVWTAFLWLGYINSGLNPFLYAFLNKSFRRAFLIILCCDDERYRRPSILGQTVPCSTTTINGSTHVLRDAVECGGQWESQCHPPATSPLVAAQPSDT
Chain of 5-hydroxytryptamine receptor 5A (Homo sapiens) (P47898 whole entry): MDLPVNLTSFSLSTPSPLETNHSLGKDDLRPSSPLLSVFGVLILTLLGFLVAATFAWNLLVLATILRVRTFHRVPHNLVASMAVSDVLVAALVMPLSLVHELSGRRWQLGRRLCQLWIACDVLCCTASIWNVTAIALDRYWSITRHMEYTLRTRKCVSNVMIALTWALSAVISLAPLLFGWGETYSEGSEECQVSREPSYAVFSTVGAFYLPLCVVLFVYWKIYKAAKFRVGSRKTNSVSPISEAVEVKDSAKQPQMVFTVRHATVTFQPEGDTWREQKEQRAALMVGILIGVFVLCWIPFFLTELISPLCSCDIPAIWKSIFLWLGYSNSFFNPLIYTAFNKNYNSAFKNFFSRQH
Chain of 5-hydroxytryptamine receptor 1B (Homo sapiens) (P28222 whole entry): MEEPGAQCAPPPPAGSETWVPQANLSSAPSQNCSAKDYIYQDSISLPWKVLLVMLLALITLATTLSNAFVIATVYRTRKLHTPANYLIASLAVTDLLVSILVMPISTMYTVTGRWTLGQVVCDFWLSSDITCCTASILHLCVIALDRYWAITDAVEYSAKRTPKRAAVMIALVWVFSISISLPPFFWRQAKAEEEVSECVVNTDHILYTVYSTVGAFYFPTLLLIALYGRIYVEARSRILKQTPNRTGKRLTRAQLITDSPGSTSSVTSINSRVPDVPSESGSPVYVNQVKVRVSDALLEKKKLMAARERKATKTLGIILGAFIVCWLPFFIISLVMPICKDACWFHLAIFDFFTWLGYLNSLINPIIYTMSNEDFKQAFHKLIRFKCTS
Chain of 5-hydroxytryptamine receptor 1D (Homo sapiens) (P28221 whole entry): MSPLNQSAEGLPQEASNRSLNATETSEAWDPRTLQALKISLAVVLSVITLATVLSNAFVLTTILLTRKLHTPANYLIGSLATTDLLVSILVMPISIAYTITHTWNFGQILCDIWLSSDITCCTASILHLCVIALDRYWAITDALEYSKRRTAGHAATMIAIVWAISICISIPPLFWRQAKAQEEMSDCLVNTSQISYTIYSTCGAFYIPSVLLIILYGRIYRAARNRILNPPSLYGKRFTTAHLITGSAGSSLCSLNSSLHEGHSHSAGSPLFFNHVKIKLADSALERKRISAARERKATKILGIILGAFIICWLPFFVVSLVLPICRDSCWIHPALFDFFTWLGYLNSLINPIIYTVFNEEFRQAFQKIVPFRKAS
Chain of 5-hydroxytryptamine receptor 7 (Homo sapiens) (P34969 whole entry): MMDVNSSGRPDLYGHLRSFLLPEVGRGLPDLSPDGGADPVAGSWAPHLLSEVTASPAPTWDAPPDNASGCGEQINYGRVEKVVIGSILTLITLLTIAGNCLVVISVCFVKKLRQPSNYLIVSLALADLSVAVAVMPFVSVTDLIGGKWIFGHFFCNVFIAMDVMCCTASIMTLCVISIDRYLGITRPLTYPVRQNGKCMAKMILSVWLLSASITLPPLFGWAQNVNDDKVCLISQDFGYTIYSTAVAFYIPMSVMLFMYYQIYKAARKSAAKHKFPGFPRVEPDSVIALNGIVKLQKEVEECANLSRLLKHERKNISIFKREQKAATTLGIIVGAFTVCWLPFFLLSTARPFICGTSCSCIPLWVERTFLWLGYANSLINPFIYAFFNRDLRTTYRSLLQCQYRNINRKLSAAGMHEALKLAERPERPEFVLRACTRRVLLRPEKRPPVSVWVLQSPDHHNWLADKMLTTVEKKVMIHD
Chain of 5-hydroxytryptamine receptor 6 (Homo sapiens) (P50406 whole entry): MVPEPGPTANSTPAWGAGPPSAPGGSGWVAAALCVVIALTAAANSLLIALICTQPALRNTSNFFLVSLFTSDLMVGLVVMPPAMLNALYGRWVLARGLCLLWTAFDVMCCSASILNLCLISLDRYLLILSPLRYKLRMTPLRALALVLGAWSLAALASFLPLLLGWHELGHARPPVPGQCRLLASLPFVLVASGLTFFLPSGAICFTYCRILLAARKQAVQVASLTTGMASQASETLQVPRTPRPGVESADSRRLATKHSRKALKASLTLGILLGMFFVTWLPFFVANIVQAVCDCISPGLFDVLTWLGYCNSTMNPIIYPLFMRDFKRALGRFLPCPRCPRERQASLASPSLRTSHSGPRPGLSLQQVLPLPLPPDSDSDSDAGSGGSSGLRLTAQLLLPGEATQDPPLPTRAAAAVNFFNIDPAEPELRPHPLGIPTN
T2 sequence (P41595 whole entry): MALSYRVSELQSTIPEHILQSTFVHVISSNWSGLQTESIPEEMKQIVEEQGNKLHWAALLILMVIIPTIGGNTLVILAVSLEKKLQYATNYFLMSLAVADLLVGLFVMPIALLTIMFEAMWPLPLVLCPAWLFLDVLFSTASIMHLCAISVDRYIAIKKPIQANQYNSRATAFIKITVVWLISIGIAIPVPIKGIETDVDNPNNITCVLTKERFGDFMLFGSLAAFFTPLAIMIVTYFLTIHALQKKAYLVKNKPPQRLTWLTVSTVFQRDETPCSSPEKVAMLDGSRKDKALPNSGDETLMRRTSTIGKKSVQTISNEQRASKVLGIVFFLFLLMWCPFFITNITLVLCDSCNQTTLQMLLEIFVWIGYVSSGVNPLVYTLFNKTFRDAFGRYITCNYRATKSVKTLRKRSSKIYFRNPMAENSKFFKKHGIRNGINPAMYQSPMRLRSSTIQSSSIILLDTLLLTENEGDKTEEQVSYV
Chain of 5-hydroxytryptamine receptor 1E (Homo sapiens) (P28566 whole entry): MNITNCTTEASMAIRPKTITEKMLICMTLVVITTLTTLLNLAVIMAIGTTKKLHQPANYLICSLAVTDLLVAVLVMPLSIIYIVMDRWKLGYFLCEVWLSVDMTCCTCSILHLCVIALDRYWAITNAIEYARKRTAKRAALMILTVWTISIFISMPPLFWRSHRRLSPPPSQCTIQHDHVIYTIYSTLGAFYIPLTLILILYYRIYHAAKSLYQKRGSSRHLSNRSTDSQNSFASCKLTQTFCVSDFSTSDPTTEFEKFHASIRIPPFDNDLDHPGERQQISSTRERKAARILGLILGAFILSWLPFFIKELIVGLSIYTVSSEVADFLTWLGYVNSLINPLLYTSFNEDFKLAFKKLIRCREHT

For the molecule `O[C@@H]1[C@H](O)[C@@H]2C[C@@H]2[C@H]1n1cnc2c(NC(C3CC3)C3CC3)nc(Cl)nc21`, the Ki – broadly, the dissociation constant of the complex between target and ligand, obtained from inhibition or displacement – in test [1] was > 10 µM; in test [3], 0.675 µM. The inhibition (in general, the change of the read-out against control, counted positive when it falls) in test [2] was < 10%.
For the molecule `CNC(=O)[C@H]1O[C@@H](n2cnc3c(NCc4cccc(I)c4)nc(Cl)nc32)[C@H](O)[C@@H]1O` [NAMODENOSON], the inhibitory constant (Ki) in [4] was 10 µM; in test [1] it was > 10 µM; in test [3] it was 2.77 µM. Also, the results for the inhibition in test [2] and in [5] were 30% and > 50%, respectively.
Turning to `CC(C)[C@H](Nc1nc(Cl)nc2c1ncn2[C@H]1[C@H](O)[C@H](O)[C@]2(CO)C[C@H]12)C1CC1`, the inhibition in test [6], in test [7], in test [8], in test [9], in [10] and in test [11] was < 50% in each case. For the same molecule, the inhibition in test [2] is < 10%; in test [12] it was < 50%; in test [5] it was > 50%; in test [13] it was < 50%; in [14] it was < 50%. Besides, the Ki is 0.672 µM in test [4], > 10 µM in [1], 3.45 µM at Adenosine receptor A3 and 0.104 µM at Adenosine receptor A1.
For `CNC(=O)[C@H]1O[C@@H](n2cnc3c(N)ncnc32)[C@H](O)[C@@H]1O`, the inhibition in test [6] was < 50%; in test [7], < 50%; in test [8], < 50%; in [9], < 50%; in test [10], < 50%; in test [15], < 10%. Moreover, the inhibition is < 50% in test [11]; < 10% in test [2]; < 50% in [12]; < 10% in test [5]; < 50% in test [13]; < 50% in test [14]. Also, the inhibitory constant (Ki) in test [1] was > 10 µM.
For `OC[C@H]1O[C@@H](n2cnc3c(NC(C4CC4)C4CC4)ncnc32)[C@H](O)[C@@H]1O`, the inhibition was < 50% in [6]; < 50% in test [7]; < 50% in test [8]; < 50% in test [9]; < 50% in test [10]; 38% in test [15]. Moreover, the inhibition in test [11] was < 50%; in [2], < 10%; in test [12], < 50%; in test [5], 11%; in [13] it was < 50%; in [14], < 50%. Besides, the Ki in test [1] is > 10 µM.
`CNC(=O)[C@H]1O[C@@H](n2cnc3c(NCc4cccc(I)c4)ncnc32)[C@H](O)[C@@H]1O` [IB-MECA]: the inhibition in [6] was < 50%; in [7] it was < 50%; in [8] it was < 50%; in test [9], < 50%; in test [10] it was < 50%; in test [15], > 50%. The inhibition in test [11] was < 50%; in test [2], < 10%; in [12], < 50%; in test [5], > 50%; in test [13], < 50%; in test [14], < 50%. Moreover, the Ki in [1] was > 10 µM.
Regarding `Nc1nc(Cl)nc2c1ncn2[C@H]1[C@H](O)[C@H](O)[C@]2(CO)C[C@H]12`, the inhibition was < 50% in [6]; < 50% in test [7]; < 50% in [8]; < 50% in test [9]; < 50% in test [10]; > 50% in [15]. For the same molecule, the inhibition in [11] is < 50%; in test [2], < 10%; in test [12], < 50%; in test [5], < 10%; in [13], < 50%; in [14], < 50%. In addition, the Ki in test [1] and in [3] was > 10 µM each time.
For the molecule `Nc1nc(Cl)nc2c1ncn2[C@@H]1O[C@H](CO)[C@@H](O)[C@H]1O`, the inhibition in test [6] is < 50%; in [7], < 50%; in test [8], < 50%; in test [9] it was < 50%; in test [10], < 50%; in [15], < 10%. In addition, the inhibition is < 50% in test [11]; 46% in test [2]; < 50% in test [12]; < 10% in [5]; < 50% in test [13]; < 50% in test [14]. For the same molecule, the Ki was > 10 µM in test [1] and 0.0028 µM at Adenosine receptor A1.
